Measurements reported in patent US20190119284A1, “ErbB Inhibitors and Uses Thereof” (The Regents of the University of California, priority 2016, published 2019).
Where two headings read alike, the source gives them in different places.

Experiments:
[1] = Mouse Liver Microsome stability assay; assay type: in vitro ADME; conditions: mouse liver microsomes
[2] = molecular target: 2YF/3wt + NRG Ba/F3 cells (HER2YF/HER3wt) (Homo sapiens, UniProt P04626, Y1005F/Y1023F/Y1112F/Y1127F/Y1139F/Y1196F/Y1221F/Y1222F/Y1248F, cells depend on it); assay: Ba/F3 proliferation assay, 2YF/3wt + NRG; assay type: cell-based; conditions: Tables 7 and 8; read-out: Ba/F3 line IC50, HER2YF/HER3 + NRG
Sequence of 2YF/3wt + NRG Ba/F3 cells (HER2YF/HER3wt) (P04626 whole entry Y1005F/Y1023F/Y1112F/Y1127F/Y1139F/Y1196F/Y1221F/Y1222F/Y1248F): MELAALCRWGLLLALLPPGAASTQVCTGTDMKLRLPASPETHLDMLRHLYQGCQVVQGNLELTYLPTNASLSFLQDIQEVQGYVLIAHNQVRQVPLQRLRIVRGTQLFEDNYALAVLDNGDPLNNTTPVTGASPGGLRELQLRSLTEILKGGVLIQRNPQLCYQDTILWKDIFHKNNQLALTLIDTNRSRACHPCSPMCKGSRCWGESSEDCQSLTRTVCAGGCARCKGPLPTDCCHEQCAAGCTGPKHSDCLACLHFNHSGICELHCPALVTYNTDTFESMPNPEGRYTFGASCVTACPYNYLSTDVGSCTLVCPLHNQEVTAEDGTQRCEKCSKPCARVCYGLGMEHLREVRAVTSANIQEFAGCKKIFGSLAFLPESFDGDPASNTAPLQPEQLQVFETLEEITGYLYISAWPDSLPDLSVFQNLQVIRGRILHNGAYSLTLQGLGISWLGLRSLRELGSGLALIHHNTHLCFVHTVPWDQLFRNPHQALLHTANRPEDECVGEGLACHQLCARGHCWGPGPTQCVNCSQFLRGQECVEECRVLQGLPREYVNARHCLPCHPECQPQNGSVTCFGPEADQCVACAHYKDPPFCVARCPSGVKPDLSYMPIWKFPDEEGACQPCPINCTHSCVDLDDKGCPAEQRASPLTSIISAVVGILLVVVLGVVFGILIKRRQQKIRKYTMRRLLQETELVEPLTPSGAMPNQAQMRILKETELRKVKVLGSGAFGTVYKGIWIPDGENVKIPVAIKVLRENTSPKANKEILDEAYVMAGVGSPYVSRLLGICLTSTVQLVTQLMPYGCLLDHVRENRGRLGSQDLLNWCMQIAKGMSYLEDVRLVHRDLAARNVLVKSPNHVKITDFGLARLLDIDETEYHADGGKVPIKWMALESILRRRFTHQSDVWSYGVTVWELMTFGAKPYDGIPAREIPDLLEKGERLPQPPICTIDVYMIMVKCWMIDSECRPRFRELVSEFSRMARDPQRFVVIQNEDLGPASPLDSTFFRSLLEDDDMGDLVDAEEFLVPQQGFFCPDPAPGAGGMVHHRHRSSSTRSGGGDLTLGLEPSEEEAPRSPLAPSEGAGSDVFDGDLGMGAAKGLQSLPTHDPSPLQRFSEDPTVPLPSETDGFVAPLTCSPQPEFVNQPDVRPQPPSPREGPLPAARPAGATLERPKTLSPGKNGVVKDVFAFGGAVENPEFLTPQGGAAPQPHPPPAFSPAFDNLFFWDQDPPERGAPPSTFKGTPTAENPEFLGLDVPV
Excerpt: Ba/F3 cells are normally dependent on IL-3 signaling for their proliferation and survival, but can be made dependent on introduced oncogenic signals. We sequentially selected transduced Ba/F3 cells for populations stably expressing HER3 and then HER2. To ensure that all of the proliferative signal could be attributed to HER2/HER3 heterodimers, rather than HER2 homodimers, the 9 C-terminal tyrosines in HER2 were mutated to phenylalanine (HER2YF). We then withdrew IL-3 and supplemented the media with NRG to select for NRG dependent HER2YF/HER3wt cells (2YF/3wt).
For the 2YF/3wt cells, the parental cells were first transduced with HER3 according to the protocol above and were then spun down at 500×g for 5 min and re-suspended in media supplemented with 10 ng/mL IL-3 and 3 μg/mL puromycin (Invitrogen). Cells were maintained in these conditions for seven days, passaging as required. After seven days the cells were spun down, washed with fresh media, and then used for a subsequent round of transduction according to the protocol above with HER2YF virus. […] The cells were maintained in these conditions for seven days, passaging as required. After seven days the cells were spun down, washed with fresh media, and then suspended in media supplemented with 10 ng/mL of NRG. Cells were maintained in these conditions for seven days to select for a NRG dependent population of 2YF/3wt Ba/F3 cells that were then maintained as described above. The same protocol was used for the 2YF-L755S/3wt, 2YF-YVMA/3wt, and 2YF-VC/3wt cell lines using the indicated constructs.
Proliferation Assays. […] The following day media was changed to fresh media that contained either DMSO or the indicated concentration of drug plus NRG (50 ng/mL final concentration) as indicated. […] For all normalized assays, proliferation was normalized to the DMSO control condition. All graphs were plotted in GraphPad Prism 6 and fit with a non-linear regression of the log(inhibitor) vs response with a variable slope where shown. All graphs are averages (+/−standard deviation) of biological triplicates each performed in technical triplicate unless otherwise noted. If only one biological replicate was performed standard deviations were derived from the technical replicates.

Axl+ Ba/F3 cells = molecular target: T1, Axl+ Ba/F3 cells (Homo sapiens, UniProt P30530); assay: Ba/F3 proliferation assay, Axl+; assay type: cell-based; conditions: Tables 7 and 8; read-out: Ba/F3 line IC50, Axl+
T1 sequence (P30530 1-894): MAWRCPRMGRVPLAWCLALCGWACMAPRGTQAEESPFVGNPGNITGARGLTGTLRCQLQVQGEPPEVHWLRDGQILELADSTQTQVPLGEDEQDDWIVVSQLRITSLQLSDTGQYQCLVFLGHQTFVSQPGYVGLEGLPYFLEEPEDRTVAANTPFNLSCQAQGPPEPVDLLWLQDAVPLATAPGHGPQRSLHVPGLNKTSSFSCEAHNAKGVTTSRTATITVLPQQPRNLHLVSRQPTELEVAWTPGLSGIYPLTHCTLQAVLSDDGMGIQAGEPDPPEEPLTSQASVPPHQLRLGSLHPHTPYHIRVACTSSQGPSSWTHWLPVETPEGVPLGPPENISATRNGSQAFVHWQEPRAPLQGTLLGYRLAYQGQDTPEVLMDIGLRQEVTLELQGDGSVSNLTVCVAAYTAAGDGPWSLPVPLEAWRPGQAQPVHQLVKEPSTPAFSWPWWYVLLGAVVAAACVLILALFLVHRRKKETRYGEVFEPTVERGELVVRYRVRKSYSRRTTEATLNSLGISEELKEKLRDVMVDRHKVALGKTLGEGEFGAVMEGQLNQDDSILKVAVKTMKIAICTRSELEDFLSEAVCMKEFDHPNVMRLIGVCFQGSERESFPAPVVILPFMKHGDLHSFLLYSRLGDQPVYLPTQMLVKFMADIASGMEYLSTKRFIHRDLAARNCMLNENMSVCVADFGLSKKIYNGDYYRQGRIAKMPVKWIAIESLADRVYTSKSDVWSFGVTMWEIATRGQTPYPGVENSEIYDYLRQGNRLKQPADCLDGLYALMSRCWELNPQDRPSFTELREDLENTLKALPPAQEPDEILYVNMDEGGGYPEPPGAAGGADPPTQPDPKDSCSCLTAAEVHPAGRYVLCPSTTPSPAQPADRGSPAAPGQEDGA
Experimental: (§1) To validate the screen and test the effectiveness of counter-screening with either the same 2YF/3wt Ba/F3 cell line or the parental Ba/F3's in the presence of IL-3 to remove cytotoxic primary hits, we first tested a panel of kinase inhibitors with established mechanisms of action.
For Axl+ cells, the transduced cells were spun down at 500×g for 5 min and resuspended in media supplemented with 10 ng/mL IL-3 and 3 μg/mL puromycin (Invitrogen). Cells were maintained in these conditions for 7 days, passaging as required. After 7 days the cells were spun down, washed with fresh media, and then suspended in IL-3 free media. The cells were maintained in these conditions for 2 weeks to select for an IL-3 independent population of Axl+ driven cells.
(§2) Proliferation Assays. For adherent cell lines, cells were plated onto opaque white 96 well plates (Greiner cat #655083) and allowed to adhere overnight. The following day media was changed to fresh media that contained either DMSO or the indicated concentration of drug plus NRG (50 ng/mL final concentration) as indicated. Plates were incubated at 37° C. for 72 h and proliferation was read out using Cell Titer Glo (Promega) according to the manufacturer's protocol. For Ba/F3 cell proliferation, cells, drug dilution, and any necessary growth factors (10 ng/mL IL-3 or 6.25 ng/mL NRG) were combined in a well of a 96 well plate. Plates were incubated at 37° C. for 48 h and proliferation was read out using Cell Titer Glo according to the manufacturer's protocol. For all normalized assays, proliferation was normalized to the DMSO control condition. All graphs were plotted in GraphPad Prism 6 and fit with a non-linear regression of the log(inhibitor) vs response with a variable slope where shown. All graphs are averages (+/−standard deviation) of biological triplicates each performed in technical triplicate unless otherwise noted. If only one biological replicate was performed standard deviations were derived from the technical replicates.

[3] = tested on: parental Ba/F3 cells + IL-3; assay: Ba/F3 proliferation assay, Parental + IL-3; assay type: cell-based; conditions: Tables 7 and 8, read-out: Ba/F3 line IC50, Parental + IL-3
Experimental: as §1, §2

HER2+/2VE Ba/F3 line = assay: Ba/F3 proliferation assay, HER2+/2VE; assay type: cell-based; conditions: Tables 7 and 8
Experimental: as §2

SMILES | WuXi Microsomal stability (Mouse Extraction Ratio) [1] | GI50 [2] [µM] | GI50 (Axl+ Ba/F3 cells) [µM] | IC50 ([3]; Mus musculus, BaF3) [µM] | IC50 (HER2+/2VE Ba/F3 line; Mus musculus, BaF3) [µM] | IC50 [3] [µM] | IC50 (HER2+/2VE Ba/F3 line) [µM]
CN(C)c1ccc(-c2ccccc2)cc1Nc1ncnc2[nH]nc(-c3cc[nH]n3)c12 [compound 8164] | 0.9 | – | – | – | – | – | –
COc1ccc(N2CCN(C)CC2)cc1Nc1ncnc2[nH]nc(-c3ccsc3)c12 [Cmpd 41B] | – | > 3.33 | > 1 | > 3.33 | > 1 | – | –
COc1ccc(-c2ccccc2)cc1N(C)c1ncnc2[nH]nc(-c3ccsc3)c12 [Cmpd 43] | – | > 3.33 | > 3.33 | > 3.33 | > 3.33 | – | –
COc1ccc(-c2ccccc2)cc1Nc1ncnc2[nH]nc(-c3ccc[nH]3)c12 [Cmpd 45C] | – | 0.952 | > 3.33 | > 10 | > 3.33 | – | –
COc1ccc(-c2ccccc2F)cc1Nc1ncnc2[nH]nc(-c3cc[nH]n3)c12 [8168A] | 0.8 | – | – | – | – | – | –
COc1ccc(-c2ccccc2C)cc1Nc1ncnc2[nH]nc(-c3ccsc3)c12 [Cmpd 39A] | – | > 3.33 | > 10 | > 10 | > 10 | – | –
COc1ccc(-c2ccccc2)cc1Nc1ncnc2[nH]nc(-c3cn[nH]c3)c12 [Cmpd 45E] | – | 0.053 | > 10 | > 10 | 1.35 | – | –
COc1ccc(-c2ccoc2)cc1Nc1ncnc2[nH]nc(-c3cn[nH]c3)c12 [Cmpd 57B] | – | 0.0126 | > 10 | > 10 | 0.0829 | – | –
COc1ccc(-c2ccccc2)cc1Nc1ncnc2[nH]nc(-c3ccccc3F)c12 [Cmpd 189A] | – | 0.361 | 0.362 | 1.12 | 0.613 | – | –
COc1ccc(C(C)(C)C)cc1Nc1ncnc2[nH]nc(-c3cccc(C(C)=O)c3)c12 [Cmpd 190D] | – | > 10 | > 10 | > 10 | > 10 | – | –
COc1ccc(-c2ccccc2)cc1Nc1ncnc2[nH]nc(-c3cccc(C(N)=O)c3)c12 [Cmpd 45D] | – | 0.27 | 0.88 | 3.01 | 0.869 | – | –
COc1ccc(-c2ccccc2)cc1Nc1ncnc2[nH]nc(-c3cccs3)c12 [Cmpd 45B] | – | 0.745 | 4.03 | > 10 | 3.61 | – | –
c1ccc(-c2cccc(Nc3ncnc4[nH]nc(-c5ccccc5)c34)c2)cc1 [Cmpd 186A] | – | > 10 | > 10 | > 10 | > 10 | – | –
COc1ccc(-c2ccccc2)cc1Nc1ncnc2[nH]nc(-c3cccc4ccccc34)c12 [Cmpd 191B] | – | > 1 | > 1 | > 1 | > 1 | – | –
COc1ccc(C(=O)N(C)C)cc1Nc1ncnc2[nH]nc(-c3ccsc3)c12 [Cmpd 42] | – | > 10 | > 10 | > 10 | > 10 | – | –
COc1ccc(-c2ccccc2)cc1Nc1ncnc2[nH]nc(-c3ccc(C#N)cc3)c12 [Cmpd 191D] | – | 0.884 | 1.01 | 1.74 | 1.11 | – | –
COc1ccc(-c2ccccc2)cc1Nc1ncnc2[nH]nc(-c3ccc4ccccc4c3)c12 [Cmpd 190C] | – | 0.862 | 0.643 | 1.51 | 1.84 | – | –
COc1ccc(-c2ccc(C)cc2)cc1Nc1ncnc2[nH]nc(-c3ccsc3)c12 [Cmpd 39C] | – | > 10 | > 10 | > 10 | > 10 | – | –
COc1ccc(-c2ccccc2)cc1Nc1ncnc2[nH]nc(-c3ccco3)c12 [Cmpd 45A] | – | 0.043 | 1.21 | > 10 | 0.978 | – | –
COc1ccc(-c2ccccc2)cc1Nc1ncnc2[nH]nc(-c3ccoc3)c12 [Cmpd 13] | – | 0.839 | 2.96 | > 10 | 3.4 | – | –
COc1ccc(-c2ccccc2)cc1Nc1ncnc2[nH]nc(-c3ccsc3)c12 [Cmpd 191F] | – | 0.376 | 2.15 | 2.51 | 1.7 | – | –
CC(=O)c1cccc(-c2n[nH]c3ncnc(Nc4ccc(Oc5ccccc5)cc4)c23)c1 [Cmpd 5-001B] | – | > 10 | > 10 | > 10 | > 10 | – | –
COc1ccc(-c2ccccc2)cc1Nc1ncnc2[nH]nc(-c3ccc(C(F)(F)F)cc3)c12 [Cmpd 191E] | – | > 10 | > 10 | > 10 | > 10 | – | –
COc1ccc(-c2n[nH]c3ncnc(Nc4cc(-c5ccccc5)ccc4OC)c23)cc1 [Cmpd 189B] | – | > 10 | > 10 | – | – | > 10 | > 10
COc1ccc(-c2cccc(C)c2)cc1Nc1ncnc2[nH]nc(-c3ccsc3)c12 [Cmpd 39B] | – | > 3.33 | 1.76 | > 3.33 | > 3.33 | – | –
CC(=O)c1cccc(-c2n[nH]c3ncnc(Nc4cc(-c5ccccc5)ccc4O)c23)c1 [Cmpd 191A] | – | 0.15 | 0.506 | 2.91 | 0.769 | – | –
COc1ccccc1Nc1ncnc2[nH]nc(-c3ccccc3)c12 [Cmpd 187A] | – | > 10 | > 10 | > 10 | > 10 | – | –
COc1ccc(N2CCOCC2)cc1Nc1ncnc2[nH]nc(-c3ccsc3)c12 [Cmpd 41A] | – | > 3.33 | > 10 | > 10 | > 10 | – | –
COc1ccc(-c2ccco2)cc1Nc1ncnc2[nH]nc(-c3ccco3)c12 [55A] | – | 0.0395 | > 3.33 | > 10 | 0.908 | – | –
